In patent publication US8173841B2, “Tetrahydro-naphthalene derivatives” (Xention Limited, priority 2003, dated 2012):

What was measured:
human VR1 = biological target: T1, human VR1 (Homo sapiens, UniProt Q8NER1); assay: Capsaicin-induced Ca2+ influx in the human VR1-transfected CHO cell line (Assay 1); format: cell-based; settings: human VR1-CHOluc9aeq cells, stimulation with 10 nM capsaicin, Fluo-3 AM / FDSS-3000; compounds of purity about 40 to 90%; read-out: Activity Class (IC50 of capsaicin-induced Ca2+ influx)
T1 construct: expressed in transfected cells
Source text: [Measurement of Capsaicin-Induced Ca^2+ Influx in the Human VR1-Transfected CHO Cell Line] (Assay 1)
(1) Establishment of the Human VR1-CHOluc9aeq Cell Line
Human vanilloid receptor (hVR1) cDNA was cloned from libraries of axotomized dorsal root ganglia (WO 00/29577). The cloned hVR1 cDNA was constructed with pcDNA3 vector and transfected into a CHOluc9aeq cell line. The cell line contains aequorin and CRE-luciferase reporter genes as read-out signals. The transfectants were cloned by limiting dilution in selection medium (DMEM/F12 medium (Gibco BRL) supplemented with 10% FCS, 1.4 mM Sodium pyruvate, 20 mM HEPES, 0.15% Sodium bicarbonate, 100 U/ml penicillin, 100 μg/ml streptomycin, 2 mM glutamine, non-essential amino acids and 2 mg/ml G418). Ca^2+ influx was examined in the capsaicin-stimulated clones. A high responder clone was selected and used for further experiments in the project. The human VR1-CHOluc9aeq cells were maintained in the selection medium and passaged every 3-4 days at 1−2.5×10^5 cells/flask ([…]).
(2) Measurement of Ca^2+ influx using FDSS-3000
Human VR1-CHOluc9aeq cells were suspended in a culture medium which is the same as the selection medium except for G418 and seeded at a density of 1,000 cells per well into 384-well plates (black walled clear-base/Nalge Nunc International). Following the culture for 48 hrs the medium was changed to 2 μM Fluo-3 AM (Molecular Probes) and 0.02% Puronic F-127 in assay buffer (Hank's balanced salt solution (HBSS), 17 mM HEPES (pH7.4), 1 mM Probenecid, 0.1% BSA) and the cells were incubated for 60 min at 25° C. After washing twice with assay buffer the cells were incubated with a test compound or vehicle for 20 min at 25° C. Mobilization of cytoplasmic Ca^2+ was measured by FDSS-3000 (λex=488 nm, λem=540 nm/Hamamatsu Photonics) for 60 sec after the stimulation with 10 nM capsaicin. Integral R was calculated and compared with controls.
The data corresponds to the compounds as yielded by solid phase synthesis and thus to levels of purity of about 40 to 90%. For practical reasons, the compounds are grouped in four classes of activity as follows: IC50=A (< or =) 0.1 μM<B (< or =) 0.5 μM<C (< or =) 1 μM<D

T1 sequence (Q8NER1 whole entry): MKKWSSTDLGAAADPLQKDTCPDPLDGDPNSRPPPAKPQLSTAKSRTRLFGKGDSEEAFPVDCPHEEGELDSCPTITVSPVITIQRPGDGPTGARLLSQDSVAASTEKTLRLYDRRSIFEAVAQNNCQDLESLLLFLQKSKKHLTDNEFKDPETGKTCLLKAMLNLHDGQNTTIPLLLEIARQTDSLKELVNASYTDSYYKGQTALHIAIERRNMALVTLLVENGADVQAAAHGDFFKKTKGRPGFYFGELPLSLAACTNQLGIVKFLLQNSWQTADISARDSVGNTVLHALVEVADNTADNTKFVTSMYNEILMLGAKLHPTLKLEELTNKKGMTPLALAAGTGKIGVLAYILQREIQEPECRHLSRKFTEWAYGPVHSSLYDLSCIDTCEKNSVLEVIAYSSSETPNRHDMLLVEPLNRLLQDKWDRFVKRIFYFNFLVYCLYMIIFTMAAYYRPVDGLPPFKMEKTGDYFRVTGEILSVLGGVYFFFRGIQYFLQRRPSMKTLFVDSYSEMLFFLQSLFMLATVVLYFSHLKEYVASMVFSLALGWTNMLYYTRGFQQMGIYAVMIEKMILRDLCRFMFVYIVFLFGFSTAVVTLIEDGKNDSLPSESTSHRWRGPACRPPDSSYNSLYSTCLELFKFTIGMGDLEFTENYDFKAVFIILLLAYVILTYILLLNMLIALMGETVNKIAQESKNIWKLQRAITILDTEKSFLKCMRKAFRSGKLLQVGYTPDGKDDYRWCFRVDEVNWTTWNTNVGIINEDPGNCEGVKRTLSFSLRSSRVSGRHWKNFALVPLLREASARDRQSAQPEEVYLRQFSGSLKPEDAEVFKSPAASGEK

SMILES	IC50 (human VR1) [nM]	melting point [°C]
O=C(NCc1ccc(-c2ccc(F)c(Cl)c2)cc1)Nc1cccc2c1CC(O)CC2 (centres unmarked) [Example 1-42]	< 100	205 to 206
O=C(Nc1cccc(-c2ccccc2C(F)(F)F)c1)Nc1cccc2c1CC(O)CC2 (centres unmarked) [Example 1-9]	< 100	–
O=C(NCc1cccc(-c2ccc(OC(F)(F)F)cc2)c1)Nc1cccc2c1CC(O)CC2 (centres unmarked) [Example 1-58]	< 100	188 to 189
O=C(Nc1cccc(-c2ccc(F)cc2F)c1)Nc1cccc2c1CC(O)CC2 (centres unmarked) [Example 1-5]	< 100	187 to 189
O=C(NCc1ccc(-c2cccc(Cl)c2)cc1)Nc1cccc2c1CC(O)CC2 (centres unmarked) [Example 1-33]	< 100	195 to 196
COc1ccc(-c2cccc(CNC(=O)Nc3cccc4c3CC(O)CC4)c2)cc1 (centres unmarked) [Example 1-73]	< 100	188 to 189
O=C(Cc1cccc(-c2ccc(F)cc2)c1)Nc1cccc2c1CC(O)CC2 (centres unmarked) [Example 3-2]	500 to 1000	–
O=C(Nc1cccc(-c2ccccc2Cl)c1)Nc1cccc2c1CC(O)CC2 (centres unmarked) [Example 1-8]	< 100	–
O=C(NCc1ccc(-c2ccc(F)cc2)cc1)Nc1cccc2c1CC(O)CC2 (centres unmarked) [Example 1-45]	< 100	201 to 202
O=C(NCc1ccc(-c2cccc([N+](=O)[O-])c2)cc1)Nc1cccc2c1CC(O)CC2 (centres unmarked) [Example 1-54]	< 100	206 to 207
COc1ccc(OC)c(-c2ccc(CNC(=O)Nc3cccc4c3CC(O)CC4)cc2)c1 (centres unmarked) [Example 1-36]	< 100	113 to 114
O=C(NCc1cccc(-c2ccc(F)cc2F)c1)Nc1cccc2c1CC(O)CC2 (centres unmarked) [Example 1-64]	< 100	197 to 198
O=C(Nc1cccc(-c2ccc(C(F)(F)F)cc2)c1)Nc1cccc2c1CC(O)CC2 (centres unmarked) [Example 1-7]	< 100	–
O=C(Nc1cccc(-c2cc(F)cc(F)c2)c1)Nc1cccc2c1CC(O)CC2 (centres unmarked) [Example 1-11]	< 100	–

The remaining lines, values ahead:

IC50 (human VR1) [nM]	melting point [°C]	SMILES
< 100	–	CSc1ccc(-c2cccc(NC(=O)Nc3cccc4c3CC(O)CC4)c2)cc1 (centres unmarked) [Example 1-10]
< 100	196 to 197	O=C(NCc1ccc(-c2cccc(C(F)(F)F)c2)cc1)Nc1cccc2c1CC(O)CC2 (centres unmarked) [Example 1-44]
< 100	216	O=C(Nc1cccc(-c2ccc(F)c(F)c2)c1)Nc1cccc2c1CC(O)CC2 (centres unmarked) [Example 1-17]
< 100	113 to 115	CSc1ccc(-c2cc(CNC(=O)Nc3cccc4c3CC(O)CC4)ccc2N2CCCCC2)cc1 (centres unmarked) [Example 1-76]
< 100	94 to 96	O=C(Nc1cccc(-c2ccc(Cl)c(F)c2)c1)Nc1cccc2c1CC(O)CC2 (centres unmarked) [Example 1-3]
500 to 1000	193.3 to 196.5	COc1ccc(-c2cccc(C(=O)Nc3cccc4c3CC(O)CC4)c2)cc1 (centres unmarked) [Example 2-5]
< 100	191 to 192	O=C(NCc1ccc(-c2ccc(F)cc2F)cc1)Nc1cccc2c1CC(O)CC2 (centres unmarked) [Example 1-49]
< 100	195	O=C(Nc1cccc(-c2cccc(OC(F)(F)F)c2)c1)Nc1cccc2c1CC(O)CC2 (centres unmarked) [Example 1-24]
< 100	238	O=C(Nc1cccc(-c2cccc([N+](=O)[O-])c2)c1)Nc1cccc2c1CC(O)CC2 (centres unmarked) [Example 1-28]
< 100	198 to 200	CCOC(=O)c1ccc(-c2cccc(NC(=O)Nc3cccc4c3CC(O)CC4)c2)cc1 (centres unmarked) [Example 1-2]
< 100	199 to 200	O=C(NCc1ccc(-c2ccc(OC(F)(F)F)cc2)cc1)Nc1cccc2c1CC(O)CC2 (centres unmarked) [Example 1-43]
< 100	191 to 192	O=C(NCc1ccc(-c2cccc(F)c2)cc1)Nc1cccc2c1CC(O)CC2 (centres unmarked) [Example 1-38]
< 100	–	O=C(Nc1cccc(-c2ccc(OCCN3CCOCC3)cc2)c1)Nc1cccc2c1CC(O)CC2 (centres unmarked) [Example 1-29]
